Data set [1] can be described thus: Incorporation of cytotoxic agent into LDL with submicellar NaDOC. It is filed as physicochemical. The procedure:
Les LDL isolées sur sépharose CL-4B sont dialysées pendant 24 heures à 4° C contre un tampon C.
L'agent thérapeutique est solubilisé dans un solvant organique à raison de 1 mg par ml. 100 µL de cette solution sont évaporés sous Argon dans un tube à essai. On ajoute au résidu sec, 2 ml de la solution de LDL et du NaDOC de façon à atteindre une concentration finale de 1 à 5 mM selon l'agent thérapeutique considéré. […]
Au terme de l'incubation, l'échantillon est filtré sur un filtre Millipore 0,45 µm. Le NaDOC est ensuite éliminé par chromatographie sur gel P6 (Biorard®) préalablement équilibré avec un tampon C.
La concentration en ApoB et en agent thérapeutique est déterminée sur chaque fraction.Les fractions correspondant aux LDL sont mises en commun et dialysées contre un tampon τrisHCl 10 mM NaCI 0,15 M EDTA 0,3 mM pH 7,4 pendant 24 heures à 4°C.
L'ensemble du procédé décrit en IV-1 a été appliqué à un dérivé VINCA ALCALOIDE liposoluble : le "C91 base": (4-désacétyl-vinblastine C-3N-dodécyl-carboxamide). La concentration en NaDOC utilisée lors de l'incubation a été ajustée à 2 mM final.
Si on précipite sélectivement les LDL, plus de 99 % du C91 base se retrouve dans le culot. On confirme ainsi que l'agent thérapeutique est bien associé aux LDL. On appellera cette préparation : LDL-C91. […]

The next data set has as its system macrophages J77468. In words: Toxicity for J77468 macrophages (MTT reduction). It is filed as cell-based, murine. The following applies: for % de viabilité cellulaire*: 18 h, MTT. The procedure:
(§1) La lignée continue de macrophages J77468 d'origine murine provient d'un clonage de la souche J774 ATCC, et est cultivée en milieu RPMI 1640 additionné de glutamine 2 mM, 10% de sérum de veau foetal (décomplémenté 60 min. à 56°) et de 10 mM Hepes (pH 7.2). Une suspension de 5 10^6 cellules/ml sont infectées avec une culture de Candida tropicalis (5 10^5 levures/ml) provenant d'une culture de nuit dans de la casitone. Le milieu d'infection utilisé est du RPMI contenant 2 % de sérum de veau nouveau-né et 10 mM Hepes (pH 7.2).
La viabilité des macrophages J77468 cultivés dans du milieu contenant l'agent antifongique encapsulé ou non dans les LDL figure au Tableau 5. K et K01 sont toxiques aux concentrations nécessaires pour réduire de 50 % l'infection intracellulaire (C1250) contrairement au LDL-K01 pour lequel aucune toxicité n'a pu être détectée.
For orientation: Formazan colour is commonly taken as a measure of viable cells.

Another data set concerns Candida tropicalis. The experiment in a line: Intracellular infection model: J77468 macrophages infected with Candida tropicalis. It is filed as cell-based. As to conditions: 2 % de sérum de veau foetal. The method, then:
as §1
(§2) Après 3 h d'incubation à 37° dans un mélange d'air 10 % C02, la phagocytose des levures est complète. La suspension cellulaire macrophages-Candida est centrifugée, lavée abondamment et répartie à raison de 10^5 macrophages infectés/alvéole dans des boîtes à 24 alvéoles contenant une lamelle de verre (diamètre 14 mm). Après 3 h de phagocytose (To), sur 100 macrophages, 32 contiennent de 1 à 6 Candida/macrophage, l'infection moyenne étant de 2 Candida/macrophage.
(§3) Toutes les levures ont été phagocytées sauf rares exceptions (estimation au microscope optique après coloration au May-Grünwald Giemsa). Douze concentrations différentes des drogues de référence et des drogues encapsulées dans les LDL sont distribuées dans les boîtes contenant les macrophages infectés.
(§4) L'évaluation de l'efficacité d'une drogue se fait à chaque concentration. Testées après 18 h d'incubation (37°, dans un mélange air-10 % C02), les levures se multiplient d'abord au sein des cellules hôtes, puis dans le milieu extracellulaire. Le taux de macrophages infectés est alors de 75 % chez les témoins. Une cellule peut contenir de 1 à plus de 20 Candida/cellule, la majorité contient de 2 à 6 levures/cellule. Le milieu de culture contient 10^8 Candida extracellulaires/ml (comptage dans une cellule de Burker).
L'activité d'une drogue encapsulée ou non dans les LDL ou Ac-LDL par rapport à un antifongique de référence, le kétoconazole (K), est déterminé par la concentration micromolaire en drogue réduisant de 50 % le nombre de macrophages infectés par les Candida (=C150). Signalons que parallèlement à la réduction au cours du traitement, du taux de cellules infectées, le nombre de Candida par macrophage infecté diminue fortement (de 1 à 3 levures/cellule).
Le milieu de culture est RPMI + glutamine 2 mM + Hepes 10 mM + 2 % de sérum de veau foetal.

The nature of data set [2]: Incorporation of antifungal agent into LDL by NaDoc dissociation-reconstitution. The data set is classed as physicochemical. As to conditions: 1,6 mg LDL, 482 µg of agent, dialysis. The method, then:
On ajoute à 1,6 mg de LDL préalablement dialysées contre le tampon C, 10 mg de NaDoc solide et on laisse réagir 30 minutes à température ambiante. On ajoute à la préparation 2,8 ml d'une solution NaDoc 20 mM, Na2COs 50 mM, NaCi 50 mM, pH 10 contenant 482 µg de CT4000A ou 482 µg de CT040013. Les échantillons sont dialysés à 4° C contre trois fois 1 litre de tampon B.
Le pourcentage de récupération en LDL, en CT040013 et en NaDoc est déterminé au terme du processus de reconstitution (figure 13).
Il est également possible de rapporter la masse de substance incorporée par mole de LDL. Les résultats obtenus pour le CT04000A et la CT040013 sont respectivement de 0,4 et de 208 moles incorporés par mole de LDL.

Another data set has as its system C. tropicalis. In words: Extracellular infection in the infected-macrophage model. The data set is classed as cell-based. As to conditions: Candida tropicalis, read-out: CIext50^(a). The procedure:
as §1, §2, §3, §4
L'action des AF encapsulés sur une infection extracellulaire peut être évaluée de deux manières : d'une part en déterminant le nombre de Candida extracellulaires dans un modèle d'infection intracellulaire (voir VIII § 1.1.), d'autre part en mesurant la concentration minimale inhibitrice (CMI) de ces composés par la méthode de dilutions successives dans des boîtes à multipuits (milieu RPMI).

Like-named read-outs stand apart in the source and are kept apart here.

“4-désacétyl-vinblastine C-3N-dodécyl-carboxamide [C91 base]”: the “nombre de molécules de drogue incorporées par molécule de LDL” value in data set [1] (2 mM en NaDOC, temps d'incubation de 60 heures (3 heures à 25° C + 57 heures à 4°C)) worked out at 70. Also, in data set [1] (NaDOC 2 mM), the “part retrouvée dans le culot après précipitation sélective des LDL” value is more than 99%.
Turning to `CC(=O)N1CCN(c2ccc(OC[C@H]3CO[C@](Cn4ccnc4)(c4ccc(Cl)cc4Cl)O3)cc2)CC1` [K, reference compound], the “toxicité aux concentrations nécessaires pour réduire de 50 % l'infection intracellulaire” value in the data set on macrophages J77468 is listed as “toxiques”. The “% de viabilité cellulaire*” value is 85,16% in the data set on macrophages J77468 (Concentration 0,78 µM); 86,67% with macrophages J77468 (Concentration 1,56 µM); 64,56% in the data set with macrophages J77468 (Concentration 3,13 µM); 50,52% with macrophages J77468 (Concentration 6,25 µM); 16,40% in the data set on macrophages J77468 (Concentration 12,50 µM); 3,16% with macrophages J77468 (Concentration 25,00 µM). In addition, the “% de viabilité cellulaire*” value in the data set on macrophages J77468 (Concentration 50,00 µM) is given as 3,50%; with macrophages J77468 (Concentration 100,00 µM, versus untreated control), 1,75%. Besides, in the data set on Candida tropicalis, the “CI50 K/AF” value worked out at 1. The IC50 with Candida tropicalis (Candida tropicalis, Macrophage, micromolar concentration reducing infected macrophages by 50 %, 18 h, read-out: CI50 (the source's name)) is 52300 nM; in the data set on C. tropicalis (addition de 2 % Pl.H. (plasma humain)), 100 nM; with C. tropicalis (addition de 2 % SVF (sérum de veau foetal)), 100 nM. Moreover, the “moles incorporés par mole de LDL” value in data set [2] was 0,4 moles incorporés par mole de LDL.

The values above are taken from patent EP0277849A1, “Incorporation of one or more lipophilic, active principles into lipoproteins, lipoproteins obtained and pharmaceutical compositions containing them” (IRE-CELLTARG S.A., priority 1987, dated 1988).
